Where “and” joins values, the source holds several entries; their conditions need not be identical. Equal entries are not always repeated. Where two headings read alike, the source gives them in different places.
Tests used:
[1] = system: transfected Jurkat T cells; assay: Calcium influx into activated human T cells (Fluo-3AM); format: cell-based
Protocol: To uncover the mode of action of Ruthenium Red, additional experiments were performed. Because it is known that this compound effects Ca^2+ levels in cells, we examined whether Ruthenium Red prevents the rise in intracellular Ca^2+ that accompanies T cell activation. The Ca^2+ -sensitive dye, Fluo-3AM (Molecular Probes, Inc., Eugene, Oreg.), can be used to detect intracellular Ca^2+. For these studies, transfected Jurkat T cells were incubated with Fluo-3AM (1 μM) for one hour at room temperature. The cells were then washed three times and incubated in 1 ml. volumes (5×10^5 cells) with various agents to trigger T cell activation and thus Ca^2+ uptake. Ruthenium Red was added at a concentration of 1 μg/ml (1.27 μM).

[2] = system: specific antibody to cytochrome c
Protocol: The remaining mice in this study continued on their assigned treatment and were bled on day 23, as in the original pilot study, and sera were tested for specific antibodies in the ELISA. The data has been expressed as the mean of the endpoint dilution.

[3] = system: specific antibodies to cytochrome c; settings: 4 mg/kg i.p. daily, 2 days before and 12 days after immunization; day 23
[4] = system: T cell responses to cytochrome c
Protocol: For these studies, B10.A mice were treated with Ruthenium RED as before and immunized with cytochrome c. On day 7 after challenge with antigen, draining lymph nodes were removed and single cell suspensions of lymphocytes were prepared. The lymphocytes were counted to estimate overall yields and were cultured in vitro with antigen (100 μg/ml) for three days prior to addition of tritiated thymidine to quantitate proliferation.

[5] = system: human T cell (PBL) proliferation; settings: for % Inhibition: mean of 5 separate experiments
Lewis lung carcinoma = settings: mice treated with the dye; cited from earlier work
[6] = system: T cells activated with HSV-1; settings: 1 μg/ml
Protocol: In another study, T cells were activated with HSV-1 as described before and the Ruthenium Red (1 μg/ml) was added either at the start of culture (time 0) or after various delays.

[7] = system: human peripheral blood lymphocytes (PBL's); settings: for 3H-thymidine uptake / % Inhibition: Ruthenium Red 0.2 μg/ml, 3 days
Protocol: For these studies, human peripheral blood lymphocytes (PBL's) were incubated in vitro with varying concentrations of IL-2 and in the presence or absence of Ruthenium Red (0.2 μg/ml). After 3 days of culture, ^3 H-thymidine was added for 16 hr, cells were harvested, and the filters counted.

[8] = system: smooth muscle plasma membrane of pig stomach cells; settings: cited from earlier work
T cells = settings: mean of 4 determinations
Protocol: Alloreactivity was measured by stimulating T cells from one donor with inactivated lymphocytes from a second donor. The inhibition values represent the means of 4 separate determinations.

[9] = system: mitochondria of rat liver cells; settings: cited from earlier work

Compound: CNc1ccc2oc(C[C@H]3O[C@@]4(CC[C@H]3C)O[C@H]([C@H](C)C(=O)c3ccc[nH]3)[C@H](C)C[C@H]4C)nc2c1C(=O)O [Calcium ionophore, reference compound]
- % Fluorescent cells ([1]; Calcium ionophore, without Ruthenium Red): 84.6%

Compound: N.N.N.N.N.N.N.N.N.N.N.N.N.N.[Cl-].[Cl-].[Cl-].[Cl-].[Cl-].[Cl-].[O-2].[O-2].[Ru+3].[Ru+3].[Ru+4] [Ruthenium Red]
- High Responders ([2]; antibody titer greater than 1:5,120, day 23): 2/6
- mice with titers greater than 1:5000 ([2]; day 23): 2 of the 6
- Mean Titer ([2]; mean of the endpoint dilution, day 23): 18,613 ± 13,020
- fraction of mice with a greatly reduced response to antigen ([2]; pilot study, proliferative data and antibody titers together): two thirds
- reduction in antibody levels compared to control mice who received water [3]: 70%
- Cell Yield (draining lymph nodes) ([4]; mouse 14, day 7): 0.26 × 10^6
- Cell Yield (draining lymph nodes) ([4]; mouse 16, day 7): 0.81 × 10^6
- Cell Yield (draining lymph nodes) ([4]; mouse 17, day 7): 16 × 10^6
- Specific proliferation ([4]; mouse 17, day 7, antigen 100 μg/ml, three days in vitro): 22,236 cpm
- response to cytochrome c ([4]; third mouse): responded normally to cytochrome c
- enlargement of lymph nodes following immunization ([4]; two of the three mice): no enlargement of lymph nodes following immunization
- % Inhibition ([5]; 0.01 μg/ml (0.01 μM)): 17%
- % Inhibition ([5]; 0.1 μg/ml (0.13 μM)): 31%
- % Inhibition ([5]; 0.2 μg/ml (0.25 μM)): 60%
- % Inhibition ([5]; 1.0 μg/ml (1.27 μM)): 89%
- % Inhibition ([5]; 2.5 μg/ml (3.18 μM), 3.18 µM): ~90% and 96%
- IC50 ([5]; read-out: IC50, inhibition of T cell proliferation, antigen-stimulated human PBL): ~200 nM
- anti-tumor properties, growth of Lewis lung carcinoma (Lewis lung carcinoma): growth inhibition of Lewis lung carcinoma in mice
- percentage of cells staining positively with the dye (intracellular Ca2+) ([1]; 1 μg/ml (1.27 μM)): major reduction in the percentage of cells staining positively with the dye
- % Fluorescent cells ([1]; Activation (anti-CD2), Ruthenium Red 1 μg/ml (1.27 μM)): 17.2%
- latest time of addition after triggering with antigen still producing maximal inhibition [6]: ≤ 20 h
- % Inhibition ([6]; time of addition 0 hr): 95%
- % Inhibition ([6]; time of addition 1 hr): 97%
- % Inhibition ([6]; time of addition 2 hr): 96%
- % Inhibition ([6]; time of addition 4 hr): 92%
- % Inhibition ([6]; time of addition 20 hr): 86%
- % Inhibition ([6]; time of addition 33 hr): 58%
- 3H-thymidine uptake ([7]; IL-2 0.01 U/ml): 1,154 cpm
- % Inhibition ([7]; IL-2 0.01 U/ml): 80%
- 3H-thymidine uptake ([7]; IL-2 1 U/ml): 2,805 cpm
- % Inhibition ([7]; IL-2 1 U/ml): 92%
- 3H-thymidine uptake ([7]; IL-2 100 U/ml): 3,839 cpm
- % Inhibition ([7]; IL-2 100 U/ml): 88%
- proliferative response induced by IL-2 alone ([7]; PBL's): can be inhibited by this compound
- Ca2+ efflux [8]: inhibit Ca^2+ efflux
- effect on calcium ion transport ([8]; smooth muscle plasma membrane of pig stomach cells): affect calcium ion transport
- % Inhibition of alloreactivity (T cells; 0.1 μg/ml (0.13 μM)): 69%
- % Inhibition of alloreactivity (T cells; 0.2 μg/ml (0.25 μM)): 77%
- % Inhibition of alloreactivity (T cells; 1.0 μg/ml (1.27 μM)): 85%
- % Inhibition of alloreactivity (T cells; 2.5 μg/ml (3.18 μM)): 92%
- effect on calcium ion transport [9]: affect calcium ion transport

Source: patent publication US5238689A, “Use of ruthenium red as immunosuppressive agents” (Procept, Inc., priority 1992, dated 1993)
